The values that follow come from ChEMBL document CHEMBL1138324, “Synthesis and nicotinic acetylcholine receptor binding properties of bridged and fused ring analogues of epibatidine” (J Med Chem, 2007).

pKi: −log10 of the molar value.

The target of assay [1] is Neuronal acetylcholine receptor subunit alpha-7 (Homo sapiens) (UniProt P36544). Put plainly: Displacement of [125I]iodoMLA from alpha-7 nAChR at 50 nM. In general terms: In a radioligand displacement assay an active substance lowers the binding of a labelled ligand.
Neuronal acetylcholine receptor subunit alpha-7 (Homo sapiens), sequence (P36544 whole entry): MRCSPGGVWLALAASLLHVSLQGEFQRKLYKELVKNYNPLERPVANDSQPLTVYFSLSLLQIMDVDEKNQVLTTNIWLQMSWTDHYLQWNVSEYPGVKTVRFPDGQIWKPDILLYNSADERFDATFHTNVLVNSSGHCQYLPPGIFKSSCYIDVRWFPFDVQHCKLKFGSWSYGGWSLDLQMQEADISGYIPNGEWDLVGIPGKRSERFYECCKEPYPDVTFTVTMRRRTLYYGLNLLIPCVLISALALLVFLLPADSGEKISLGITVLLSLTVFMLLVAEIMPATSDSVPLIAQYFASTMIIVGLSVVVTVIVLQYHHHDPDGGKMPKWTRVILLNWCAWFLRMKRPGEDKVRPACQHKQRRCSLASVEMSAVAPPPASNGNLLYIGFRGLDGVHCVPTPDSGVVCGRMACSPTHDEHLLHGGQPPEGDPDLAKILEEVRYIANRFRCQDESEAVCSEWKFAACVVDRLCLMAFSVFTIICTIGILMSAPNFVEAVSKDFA
The target in assay [2] is T1, Neuronal acetylcholine receptor; alpha4/beta2 (Homo sapiens, UniProt P17787+P43681). Put plainly: Displacement of [3H]epibatidine from alpha-4-beta-2 nAChR at 31.6 uM. The format is protein-complex assay.
T1 sequence (P17787 whole entry): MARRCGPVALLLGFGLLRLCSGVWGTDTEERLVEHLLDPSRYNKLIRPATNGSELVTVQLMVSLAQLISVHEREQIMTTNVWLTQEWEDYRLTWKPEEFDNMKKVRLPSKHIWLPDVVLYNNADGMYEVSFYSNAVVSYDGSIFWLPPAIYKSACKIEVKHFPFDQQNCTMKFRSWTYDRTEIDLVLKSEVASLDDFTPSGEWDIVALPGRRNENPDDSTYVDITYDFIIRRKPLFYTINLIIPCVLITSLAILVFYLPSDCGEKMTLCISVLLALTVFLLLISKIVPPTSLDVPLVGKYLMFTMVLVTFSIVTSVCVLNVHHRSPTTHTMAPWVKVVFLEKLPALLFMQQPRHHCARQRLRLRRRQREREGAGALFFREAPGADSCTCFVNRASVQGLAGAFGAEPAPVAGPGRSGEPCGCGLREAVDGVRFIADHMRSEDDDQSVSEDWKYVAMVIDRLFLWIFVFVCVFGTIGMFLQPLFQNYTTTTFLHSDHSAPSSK
T1 sequence (P43681 whole entry): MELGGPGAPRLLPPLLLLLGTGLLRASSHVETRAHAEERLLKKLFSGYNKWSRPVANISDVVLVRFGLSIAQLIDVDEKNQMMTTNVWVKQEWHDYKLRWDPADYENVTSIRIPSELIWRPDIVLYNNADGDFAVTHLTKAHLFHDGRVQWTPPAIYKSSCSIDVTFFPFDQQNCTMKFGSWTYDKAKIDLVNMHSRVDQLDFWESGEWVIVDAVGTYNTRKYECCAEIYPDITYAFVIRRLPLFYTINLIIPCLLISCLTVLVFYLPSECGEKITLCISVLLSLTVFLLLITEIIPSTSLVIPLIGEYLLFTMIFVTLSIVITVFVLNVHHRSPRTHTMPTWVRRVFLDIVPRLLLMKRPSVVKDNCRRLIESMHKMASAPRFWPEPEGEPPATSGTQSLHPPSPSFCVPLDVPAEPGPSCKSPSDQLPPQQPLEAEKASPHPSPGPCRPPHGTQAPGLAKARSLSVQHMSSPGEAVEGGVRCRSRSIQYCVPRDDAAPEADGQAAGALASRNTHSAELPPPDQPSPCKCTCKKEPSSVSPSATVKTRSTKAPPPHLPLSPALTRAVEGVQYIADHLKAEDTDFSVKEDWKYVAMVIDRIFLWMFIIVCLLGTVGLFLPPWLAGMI
The target of assay [3] is T1, Neuronal acetylcholine receptor; alpha4/beta2. Description: Displacement of [3H]epibatidine from alpha-4-beta-2 nAChR. It counts as protein-complex assay.
Assay [4] concerns Mus musculus. Description: Antinociceptive effect in mouse at 10 mg/kg by tail flick test. It counts as functional. In general terms: Thermal pain tests record how soon the animal reacts.
The test system of assay [5] is Mus musculus. Description: Effect on hypothermia in mouse assessed as change in body temperature at 10 mg/kg. The format is functional.
Assay [6] deals with Mus musculus. Put plainly: Antinociceptive effect in mouse at 10 mg/kg by hot plate test. The format is functional.
In assay [7] the test system is Mus musculus. Description: Inhibition of nicotine-induced antinociceptive effect in sc dosed mouse by tail flick test. It counts as functional.
For assay [8], the system named is Mus musculus. Put plainly: Inhibition of nicotine-induced antinociceptive effect in sc dosed mouse by hot plate test. It counts as functional.
Assay [9] relates to Mus musculus. Description: Inhibition of nicotine-induced hypothermia in mouse assessed as change in body temperature at 5000 ug/kg, sc. The format is functional. Set-up: scale not given: the % may be the effect or the level left.
The subject of assay [10] is Mus musculus. Description: Inhibition of nicotine-induced antinociceptive effect in mouse at 15000 ug/kg, sc by hot plate test. It counts as functional.
Assay [11] concerns Mus musculus. Put plainly: Inhibition of nicotine-induced hypothermia in mouse assessed as change in body temperature at 15000 ug/kg, sc. It counts as functional. Set-up: scale not given: the % may be the effect or the level left.
The species entered for assay [12] is Mus musculus. Put plainly: Antinociceptive effect in mouse by tail flick test. The format is functional.
Assay [13] is filed under the species Mus musculus. Description: Antinociceptive effect in mouse by hot plate test. The format is functional.
Assay [14] has as its system Mus musculus. Put plainly: Inhibition of nicotine-induced antinociceptive effect in mouse at 0.5 ug/kg, sc by hot plate test. It counts as functional.
Assay [15] deals with Mus musculus. Description: Inhibition of nicotine-induced hypothermia in mouse assessed as change in body temperature at 0.5 ug/kg, sc. It counts as functional. Set-up: scale not given: the % may be the effect or the level left.
For assay [16], the species on record is Mus musculus. Description: Effect on hypothermia in mouse assessed as change in body temperature. The format is functional.

Consider `c1cc2c(cn1)C1CCC2N1` (stereo not drawn), for which the results for the Activity in assay [1] and in assay [2] were 0% and < 15%, respectively.
In the case of `c1cnc2c(c1)C1CCC2N1` (stereo not drawn), the Activity in assay [1] was 0%; in assay [2], < 15%.
Molecule `Nc1cc2c(cn1)C1CC3CCC1N3C2` (stereo not drawn) showed a pKi in assay [3] of 4.91. For the same molecule, the Activity in the assay with Mus musculus [4] is given as 2%; in the assay on Mus musculus [5], 0%; in the assay with Mus musculus [6], 16%.
With `Cc1cc(Cl)ncc1C1CC2CCC1N2` (stereo not drawn), the AD50 in the assay with Mus musculus [7] was 400 µg/kg; in the assay with Mus musculus [8], 1200 µg/kg. Also, the Activity in the assay with Mus musculus [4] amounted to 4%; in the assay on Mus musculus [5] it was 0%; with Mus musculus [9], 0%; in the assay with Mus musculus [6], 20%.
In the assay on Mus musculus [10], `Cc1nc(Cl)ccc1C1CC2CCC1N2` (stereo not drawn) had an inhibition in vivo at 15 mg/kg of 10%. Besides, in the assay with Mus musculus [7], the AD50 was 9000 µg/kg. The pKi in assay [3] was 6.59. The Activity in the assay with Mus musculus [4] was found to be 1%; in the assay on Mus musculus [5], 0%; in the assay with Mus musculus [11], 0%; in the assay on Mus musculus [6], 14%.
With `CN1C2CCC1C(c1ccc(Cl)nc1)C2` (stereo not drawn), the ED50 in the assay filed under Mus musculus [12] was 4.4 µg/kg; in the assay listed under Mus musculus [13], 3 µg/kg; in the assay filed under Mus musculus [16], 3 µg/kg. Also, the AD50 in the assay with Mus musculus [7] worked out at 0.048 µg/kg. In assay [3], this molecule showed a pKi of 10.42. For the same molecule, testing at 0.0005 mg/kg with Mus musculus [14] gave an inhibition in vivo of 23%. For the same molecule, the Activity with Mus musculus [15] came to 0%.
On to `Clc1ccc([C@@H]2C[C@H]3CC[C@@H]2N3)cn1` [(+)-EPIBATIDINE], for which the ED50 came out at 6 µg/kg in the assay filed under Mus musculus [12], 4 µg/kg in the assay listed under Mus musculus [13] and 4 µg/kg in the assay filed under Mus musculus [16].
As for `Clc1ccc2c(n1)CN1C3CCC1C2C3` (stereo not drawn), the Activity is on record as 3% in the assay on Mus musculus [4], 0% in the assay on Mus musculus [5] and 17% in the assay on Mus musculus [6].
Molecule `Fc1ncc(C2CC3NC2c2ccccc23)cc1-c1ccccc1` (stereo not drawn) showed a pKi in assay [3] of 6.89. Further, in [1], the Activity stood at 0%.
In the case of `Nc1ccc2c(n1)CN1C3CCC1C2C3` (stereo not drawn), the pKi in assay [3] was 5.13. In addition, the Activity in the assay with Mus musculus [4] is recorded as 4%; in the assay on Mus musculus [5], 0%; with Mus musculus [6], 10%.
As to `Clc1cc2c(cn1)C1CC3CCC1N3C2` (stereo not drawn), the pKi in [3] is 5.48. Further, the Activity in the assay with Mus musculus [4] is on record as 2%; in the assay with Mus musculus [5], 0%; with Mus musculus [6], 18%.
On to `C1=CC2NC1c1ccncc12` (stereo not drawn), for which the Activity is 0% in [1] and < 15% in assay [2].
`Clc1ccc(C2CC3NC2c2ccccc23)cn1` (stereo not drawn): in assay [3], the pKi was 7.19. This molecule also yielded an Activity in assay [1] of 0%.

Broadly, the pKi is the Ki on a negative log10 scale, so that one unit is a factor of ten. For orientation: inhibition in vivo means the drop in the measured response relative to a control, in per cent. One may read the ED50 as the dose that gives a 50% effect, or the effect in half of the subjects.
